Measurements taken from article PMC11174011, “In Vitro and Molecular Docking Evaluation of the Anticholinesterase and Antidiabetic Effects of Compounds from Terminalia macroptera Guill. & Perr. (Combretaceae)” (Molecules, 2024).
Like-named read-outs stand apart in the source and are kept apart here.

Assays:
[1] = target: AChE (electric eel source) (Electrophorus electricus, UniProt O42275); experiment: biochemical
[2] = target: BChE (horse serum source) (Equus caballus, UniProt P81908); experiment: biochemical
Chain of BChE (horse serum source) (P81908 whole entry): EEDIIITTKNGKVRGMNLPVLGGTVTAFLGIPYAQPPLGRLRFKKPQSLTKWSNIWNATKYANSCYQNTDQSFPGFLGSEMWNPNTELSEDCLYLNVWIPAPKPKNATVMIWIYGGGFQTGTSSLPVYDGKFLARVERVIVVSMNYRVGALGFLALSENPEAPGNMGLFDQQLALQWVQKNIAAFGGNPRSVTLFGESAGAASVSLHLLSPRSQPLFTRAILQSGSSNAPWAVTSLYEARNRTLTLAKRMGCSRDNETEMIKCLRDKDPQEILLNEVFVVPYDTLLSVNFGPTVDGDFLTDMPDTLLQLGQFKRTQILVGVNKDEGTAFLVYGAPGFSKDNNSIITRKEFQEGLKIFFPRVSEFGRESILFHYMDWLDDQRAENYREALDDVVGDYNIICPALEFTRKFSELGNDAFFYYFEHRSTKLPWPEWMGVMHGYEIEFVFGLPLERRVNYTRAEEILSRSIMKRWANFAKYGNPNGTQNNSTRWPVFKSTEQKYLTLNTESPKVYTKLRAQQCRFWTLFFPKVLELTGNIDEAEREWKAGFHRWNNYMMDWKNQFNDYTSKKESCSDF
Excerpt: A standard spectrophotometric method was used to measure the anticholinesterase activity using both the butyrylcholinesterase (BChE) and acetylcholinesterase (AChE) enzymes, as described elsewhere but with slight modifications [59, 60]. […] The substrates used in the AChE and BChE assays were acetylthiocholine iodide and butyrylthiocholine chloride, respectively. DTNB (5,5′-Dithio-bis(2-nitrobenzoic) acid) was used for monitoring the cholinesterase activity.

[3] = target: T1, α-amylase (porcine pancreas source) (Sus scrofa, UniProt P00690); experiment: α-Amylase inhibitory assay (starch iodine protocol); assay type: biochemical
T1 construct: A porcine pancreas source of α-amylase (50 µL), 25 µL of the samples; from tissue; host or cells: porcine pancreas
T1 sequence (P00690 16-511): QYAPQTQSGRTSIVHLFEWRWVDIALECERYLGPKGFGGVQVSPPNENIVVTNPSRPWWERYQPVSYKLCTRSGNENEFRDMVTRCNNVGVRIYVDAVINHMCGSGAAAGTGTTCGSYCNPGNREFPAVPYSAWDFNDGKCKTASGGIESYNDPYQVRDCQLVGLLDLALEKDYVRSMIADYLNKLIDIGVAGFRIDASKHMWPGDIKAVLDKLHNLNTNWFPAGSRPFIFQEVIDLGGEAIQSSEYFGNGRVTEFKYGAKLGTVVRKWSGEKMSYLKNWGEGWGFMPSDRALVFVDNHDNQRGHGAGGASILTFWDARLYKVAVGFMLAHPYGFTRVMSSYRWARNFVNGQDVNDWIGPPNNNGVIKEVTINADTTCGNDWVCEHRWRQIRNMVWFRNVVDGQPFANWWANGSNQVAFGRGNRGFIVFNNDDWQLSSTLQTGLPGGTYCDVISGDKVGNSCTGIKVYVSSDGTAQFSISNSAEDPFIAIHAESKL
Description: In the α-amylase inhibition assay, the starch iodine protocol was used with few changes [62, 63]. A porcine pancreas source of α-amylase (50 µL), 25 µL of the samples, 6 mM NaCl, and phosphate buffer (pH 6.9) solution were mixed in a 96-well microplate and incubated at 37 °C for 10 min. Then, 50 µL of 0.05% starch solution was added to the reaction mixture and further incubated under the same conditions, after which Lugol (100 µL) and HCl (0.1 M, 25 µL) solutions were added to complete the reaction.

[4] = target: α-glucosidase (fungal source from Saccharomyces cerevisiae); experiment: α-Glucosidase inhibitory assay (PNPG); assay type: biochemical; set-up: IC50 ± SEM (α-glucosidase): unit not given beside the values; conditions: for IC50 ± SEM (α-glucosidase): Table 2, repeats Table 1, unit not given; for α-Glucosidase IC50: maximum concentration 200 µg/mL, means ± SEM of three measurements
[5] = evaluated up to 100 µg/mL, means ± SEM of three measurements, read-out: AChE IC50 (converted)
[6] = evaluated up to 100 µg/mL, means ± SEM of three measurements, read-out: BChE IC50 (converted)
[7] = Table 3, repeats Table 1, unit inferred, read-out: IC50 ± SEM (Butyrylcholinesterase)
[8] = Table 3, repeats Table 1, unit inferred, read-out: IC50 ± SEM (Acetylcholinesterase)
[9] = read-out: IC50 ± SEM (α-amylase), Table 2, repeats Table 1, unit inferred

Chain of AChE (electric eel source) (O42275 24-633): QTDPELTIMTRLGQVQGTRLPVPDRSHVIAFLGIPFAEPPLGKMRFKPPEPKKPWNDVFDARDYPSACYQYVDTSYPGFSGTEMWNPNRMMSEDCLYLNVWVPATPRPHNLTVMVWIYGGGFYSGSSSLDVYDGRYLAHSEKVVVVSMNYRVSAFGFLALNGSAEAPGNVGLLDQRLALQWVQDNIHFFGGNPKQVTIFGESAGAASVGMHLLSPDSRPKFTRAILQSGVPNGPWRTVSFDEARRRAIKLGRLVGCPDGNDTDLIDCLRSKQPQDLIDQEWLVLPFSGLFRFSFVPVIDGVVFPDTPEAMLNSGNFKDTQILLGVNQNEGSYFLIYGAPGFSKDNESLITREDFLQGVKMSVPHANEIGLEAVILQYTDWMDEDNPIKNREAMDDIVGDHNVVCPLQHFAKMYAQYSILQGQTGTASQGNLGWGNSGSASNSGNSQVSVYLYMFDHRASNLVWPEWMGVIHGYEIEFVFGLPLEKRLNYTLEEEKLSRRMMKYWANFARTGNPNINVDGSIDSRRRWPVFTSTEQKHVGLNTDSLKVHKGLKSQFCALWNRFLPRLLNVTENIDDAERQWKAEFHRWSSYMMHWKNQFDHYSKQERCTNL

`COc1c(O)cc2c(=O)oc3c(OC)c(O)cc4c(=O)oc1c2c34` [Compound 1, 3,3′-di-O-methyl ellagic acid] showed an IC50 [1, 5] of 142 µM, an IC50 [2, 6] of 153 µM and an IC50 [3] of 203 µM. The “IC50 ± SEM (α-glucosidase)” value [4] was 74.18 ± 0.29 and the “α-Glucosidase IC50” value [4] was 74.18 ± 0.29 µg/mL.

With `COc1cc2c(=O)oc3c(OC)c(O[C@@H]4OC[C@@H](O)[C@H](O)[C@H]4O)cc4c(=O)oc(c1OC)c2c34` [Compound 2, 3,3′,4′-tri-O-methyl ellagic acid-4-O-β-D-xylopyranoside] the IC50 [1, 5] was 129 µM, the IC50 [2, 7] was greater than 210 µM and the IC50 [2, 6] was greater than 210 µM. For the same compound, the IC50 [3] was 216 µM, the “IC50 ± SEM (α-glucosidase)” value [4] was 121.51 ± 0.65 and the “α-Glucosidase IC50” value [4] was 121.51 ± 0.65 µg/mL.

`COc1cc2c(=O)oc3c(OC)c(O[C@@H]4O[C@H](CO)[C@@H](O)[C@H](O)[C@H]4O)cc4c(=O)oc(c1OC)c2c34` [Compound 3, 3,3′,4′-tri-O-methyl ellagic acid-4-O-β-D-glucopyranoside] showed an IC50 [1, 5] of 118 µM, an IC50 [2, 6] of 149 µM and an IC50 [3] of 217 µM. The “IC50 ± SEM (α-glucosidase)” value [4] was 137.51 ± 0.81 and the “α-Glucosidase IC50” value [4] was 137.51 ± 0.81 µg/mL.

With `COc1c(O)cc2c(=O)oc3c(OC)c(O[C@@H]4O[C@H](CO)[C@@H](O)[C@H](O)[C@H]4O)cc4c(=O)oc1c2c34` [Compound 4, 3,3′-di-O-methyl ellagic acid-4-O-β-D-glucopyranoside] the IC50 [1, 5] was 129 µM, the IC50 [2, 6] was 182 µM and the IC50 [3] was 185 µM. The “IC50 ± SEM (α-glucosidase)” value [4] was 97.75 ± 0.49 and the “α-Glucosidase IC50” value [4] was 97.75 ± 0.49 µg/mL.

Compound `CC1OC(Oc2c(-c3cc(O)c(O)c(O)c3)oc3cc(O)cc(O)c3c2=O)C(O)C(O)C1O` (stereo not drawn) [Compound 5, myricetin-3-O-rhamnoside] has an IC50 [1, 8] greater than 215 µM, an IC50 [1, 5] greater than 215 µM and an IC50 [2] greater than 215 µM. For the same compound, the IC50 ([2]; read-out: IC50 ± SEM (Butyrylcholinesterase), Table 3, repeats Table 1, unit inferred) was greater than 215 µM, the IC50 [3] was 140 µM and the “IC50 ± SEM (α-glucosidase)” value [4] was 69.02 ± 0.65. The “α-Glucosidase IC50” value [4] was 69.02 ± 0.65 µg/mL.

`O=C(O)C1=C[C@@H](O)[C@@H](O)[C@H](O)C1` [Compound 6, shikimic acid] showed an IC50 [1, 5] of 317 µM, an IC50 [2] of 337 µM and an IC50 [3] greater than 1150 µM. For the same compound, the IC50 [3, 9] was greater than 1150 µM, the “IC50 ± SEM (α-glucosidase)” value [4] was greater than 200 and the “α-Glucosidase IC50” value [4] was greater than 200 µg/mL.

In the case of `CC1(C)CC[C@]2(C(=O)O)CC[C@]3(C)C(=CC[C@@H]4[C@@]5(C)C[C@@H](O)[C@H](O)[C@@](C)(CO)[C@@H]5CC[C@]43C)[C@@H]2[C@@H]1O` [Compound 7, arjungenin], the IC50 [1, 5] is reported as 106 µM, the IC50 [2, 7] is reported as greater than 198 µM and the IC50 [2, 6] is reported as greater than 198 µM. The IC50 [3] was 369 µM, the “IC50 ± SEM (α-glucosidase)” value [4] was 192.17 ± 0.78 and the “α-Glucosidase IC50” value [4] was 192.17 ± 0.78 µg/mL.

For `CC1(C)CC[C@]2(C(=O)O)CC[C@]3(C)C(=CC[C@@H]4[C@@]5(C)C[C@@H](O)[C@H](O)[C@@](C)(CO)[C@@H]5[C@H](O)C[C@]43C)[C@@H]2C1` [Compound 8, terminolic acid], the IC50 [1, 5] was 130 µM, the IC50 [2, 7] was greater than 198 µM and the IC50 [2, 6] was greater than 198 µM. The IC50 [3] was 289 µM, the “IC50 ± SEM (α-glucosidase)” value [4] was 155.84 ± 0.31 and the “α-Glucosidase IC50” value [4] was 155.84 ± 0.31 µg/mL.

`CC1(C)CCC2(C(=O)OC3OC(CO)C(O)C(O)C3O)CCC3(C)C(=CCC4C5(C)CC(O)C(O)C(C)(C)C5CCC43C)C2C1O` (stereo not drawn) [Compound 9, 24-deoxysericoside] was tested, and the IC50 [1, 8] was greater than 154 µM, the IC50 [1, 5] was greater than 154 µM and the IC50 [2, 7] was greater than 154 µM. The IC50 [2, 6] was greater than 154 µM, the IC50 [3] was greater than 307 µM and the IC50 [3, 9] was greater than 307 µM. For the same compound, the “IC50 ± SEM (α-glucosidase)” value [4] was greater than 200 and the “α-Glucosidase IC50” value [4] was greater than 200 µg/mL.

`CC1(C)CC[C@]2(C(=O)O[C@@H]3O[C@H](CO)[C@@H](O)[C@H](O)[C@H]3O)CC[C@]3(C)C(=CC[C@@H]4[C@@]5(C)C[C@@H](O)[C@H](O)[C@@](C)(CO)[C@@H]5CC[C@]43C)[C@@H]2[C@@H]1O` [Compound 10, arjunglucoside I] showed an IC50 [1, 5] of 148 µM, an IC50 [2, 7] greater than 150 µM and an IC50 [2, 6] greater than 150 µM. The IC50 [3] was greater than 300 µM, the IC50 [3, 9] was greater than 300 µM and the “IC50 ± SEM (α-glucosidase)” value [4] was greater than 200. The “α-Glucosidase IC50” value [4] was greater than 200 µg/mL.

With `CC1(C)CC[C@]2(C(=O)O[C@@H]3O[C@H](CO)[C@@H](O)[C@H](O)[C@H]3O)CC[C@]3(C)C(=CC[C@@H]4[C@@]5(C)C[C@@H](O)[C@H](O)[C@@](C)(CO)[C@@H]5[C@H](O)C[C@]43C)[C@@H]2C1` [Compound 11, chebuloside II] the IC50 [1, 8] was greater than 150 µM, the IC50 [1, 5] was greater than 150 µM and the IC50 [2, 7] was greater than 150 µM. It also gave an IC50 [2, 6] greater than 150 µM, an IC50 [3] greater than 300 µM and an IC50 [3, 9] greater than 300 µM. The “IC50 ± SEM (α-glucosidase)” value [4] was greater than 200 and the “α-Glucosidase IC50” value [4] was greater than 200 µg/mL.
